The source of these data is US20100216779A1 (GLAXOSMITHKLINE LLC, priority 2007, published 2010).

Experiment [1] deals with T1, human IGF-1R (NIH-3T3 cells over expressing human IGF-1R) (Homo sapiens, UniProt P08069).
T1 construct: expressed in transfected cells; host or cells: NIH-3T3 (mouse fibroblasts)
Nature of the experiment: IGF-1R cellular autophosphorylation (DELFIA). The settings on record: IGF-1 stimulated. Format: cell-based. The procedure:
D. IGF-1R and IR Cellular Autophosphorylation (DELFIA)
NIH-3T3 cells over expressing human IGF-1R or IR were plated in 96-well plates (10,000 cells/well) in culture media containing 10% fetal bovine serum and incubated at 37° C. in a 5% CO2 incubator. Twenty four hours post-plating, cells were treated with different concentrations of test compounds ranging from 30 uM to 1.5 nM. Two hours after compound addition, cells were stimulated with either human IGF-1 (30 ng/mL) or insulin (3 ug/mL) for 15 minutes. Cell lysates are analyzed for phosphorylated receptors using dissociation enhanced lanthanide fluor-immuno assay (DELFIA) with anti-IGF-1R (MAB391, R&D Systems, Minneapolis, Minn.) or anti-IR[…](sc-711, Santa Cruz Biotechnology, Santa Cruz, Calif.) capture antibody and europium-labeled anti-pTyr antibody (Eu-N1 PT66, Perkin Elmer, Waltham, Mass.) for detection. The fluorescence signal for cells treated with compounds was expressed as percent relative to 100% stimulation (IGF-1 or insulin stimulated signal). […]

A further experiment concerns COLO205 (colon). Nature of the experiment: Inhibition of cell proliferation, CellTiter-Glo, COLO205. Type of experiment: cell-based. The settings on record: Homo sapiens, COLO 205, 72 h. The procedure: C. Inhibition of Cell Proliferation
Cell proliferation was measured by either CellTiter-Glo (measures cellular ATP level as a surrogate for total cell number) or by InCell analyzer (counts number of nuclei as a measure of cell number). For CellTiter-Glo assay, exponentially growing cell lines of different tumor origins, cultured in appropriate media containing 10% fetal bovine serum at 37° C. in a 5% CO2 incubator, were plated at low density (less than 2000 cells/well) in 96-well plates. […] Several wells were left untreated as a control. Seventy two hours post-treatment, cell numbers were determined using 50-100 ul per well of CellTiter-Glo (Promega #G7573). Plates were incubated at 37° C. for 30 minutes and the chemiluminescent signal was read on the Victor V or Envison 2100 reader. […]
(In general: Cellular ATP, detected with luciferase, serves as a proxy for viable cell number.)

Where only a bound is given, the exact number is not on record here.

T1 sequence (P08069 31-1367): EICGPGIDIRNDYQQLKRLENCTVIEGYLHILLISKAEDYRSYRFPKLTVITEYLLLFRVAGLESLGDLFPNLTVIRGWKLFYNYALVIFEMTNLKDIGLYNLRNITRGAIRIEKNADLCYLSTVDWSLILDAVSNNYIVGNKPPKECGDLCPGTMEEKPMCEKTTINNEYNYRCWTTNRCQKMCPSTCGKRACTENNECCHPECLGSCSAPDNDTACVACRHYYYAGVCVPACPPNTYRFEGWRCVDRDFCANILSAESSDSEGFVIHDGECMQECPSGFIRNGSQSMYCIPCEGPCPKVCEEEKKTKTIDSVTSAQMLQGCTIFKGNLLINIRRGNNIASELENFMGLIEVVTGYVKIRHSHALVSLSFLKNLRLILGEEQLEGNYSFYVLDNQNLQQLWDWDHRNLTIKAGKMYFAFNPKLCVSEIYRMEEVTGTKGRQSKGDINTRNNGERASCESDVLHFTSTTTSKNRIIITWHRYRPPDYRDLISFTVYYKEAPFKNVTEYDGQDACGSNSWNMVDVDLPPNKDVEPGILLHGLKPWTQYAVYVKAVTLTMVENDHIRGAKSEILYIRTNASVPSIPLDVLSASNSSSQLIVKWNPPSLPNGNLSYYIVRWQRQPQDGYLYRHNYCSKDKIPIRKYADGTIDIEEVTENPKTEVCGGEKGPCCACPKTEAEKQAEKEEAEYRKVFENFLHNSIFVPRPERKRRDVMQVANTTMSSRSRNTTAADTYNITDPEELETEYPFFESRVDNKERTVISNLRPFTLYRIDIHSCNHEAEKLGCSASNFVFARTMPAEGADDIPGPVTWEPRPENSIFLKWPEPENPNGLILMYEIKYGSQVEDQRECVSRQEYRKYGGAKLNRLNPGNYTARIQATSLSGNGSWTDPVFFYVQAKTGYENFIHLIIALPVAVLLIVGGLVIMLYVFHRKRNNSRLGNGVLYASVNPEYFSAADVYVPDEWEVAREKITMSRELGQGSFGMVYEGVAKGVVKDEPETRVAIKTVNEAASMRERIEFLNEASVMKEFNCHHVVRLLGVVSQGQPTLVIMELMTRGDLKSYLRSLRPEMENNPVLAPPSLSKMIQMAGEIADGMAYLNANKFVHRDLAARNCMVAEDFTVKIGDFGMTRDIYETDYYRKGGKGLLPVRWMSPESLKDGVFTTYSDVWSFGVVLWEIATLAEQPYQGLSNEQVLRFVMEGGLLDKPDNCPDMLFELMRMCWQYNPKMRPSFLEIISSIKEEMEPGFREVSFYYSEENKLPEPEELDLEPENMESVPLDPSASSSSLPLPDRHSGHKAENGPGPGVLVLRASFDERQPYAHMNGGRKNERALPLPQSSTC

For the molecule `COc1cc(CCN2CCCCC2)c(F)cc1Nc1nccc(-c2c(-c3cccc(C(=O)Nc4c(F)cc(F)cc4F)c3)nc3ccccn23)n1` [Example 129, 3-{3-[2-({5-fluoro-2-(methyloxy)-4-[2-(1-piperidinyl)ethyl]phenyl}amino)-4-pyrimidinyl]imidazo[1,2-a]pyridin-2-yl}-N-(2,4,6-trifluorophenyl)benzamide], the half-inhibitory concentration (IC50) in experiment [1] lay in the range of 100 to 500 nM; in the experiment with COLO205 (colon), 250 to 1000 nM. Taken in the same sequence, the figures for `COc1cc(N2CCC(N3CC[C@H](F)C3)CC2)ccc1Nc1nccc(-c2c(-c3cccc(C(=O)Nc4c(F)cccc4F)c3)nc3ccccn23)n1` [Example 77, N-(2,6-difluorophenyl)-3-[3-(2-{[4-{4-[(3S)-3-fluoro-1-pyrrolidinyl]-1-piperidinyl}-2-(methyloxy)phenyl]amino}-4-pyrimidinyl)imidazo[1,2-a]pyridin-2-yl]benzamide] were less than 100 nM and 250 to 1000 nM. For `COc1ccc(N2CCC(N3CCCCC3)CC2)cc1Nc1nccc(-c2c(-c3cccc(C(=O)Nc4c(F)cccc4F)c3)nc3ccccn23)n1` [Example 30, 3-[3-(2-{[5-(1,4′-bipiperidin-1′-yl)-2-(methyloxy)phenyl]amino}-4-pyrimidinyl)imidazo[1,2-a]pyridin-2-yl]-N-(2,6-difluorophenyl)benzamide] the same measures were 100 to 500 nM and 250 to 1000 nM. The molecule `CN(C)CCOc1cccc(Nc2nccc(-c3c(-c4cccc(C(=O)Nc5cc(Cl)ccc5F)c4)nc4ccccn34)n2)c1` [Example 9, N-(5-chloro-2-fluorophenyl)-3-(3-{2-[(3-{[2-(dimethylamino)ethyl]oxy}phenyl)amino]-4-pyrimidinyl}imidazo[1,2-a]pyridin-2-yl)benzamide] yielded a 50% inhibitory concentration (IC50) in experiment [1] of 100 to 500 nM.

As to `Cc1c(CN2CCN(C)CC2)cccc1Nc1nccc(-c2c(-c3cccc(C(=O)Nc4c(F)cccc4F)c3)nc3ccccn23)n1` [Example 24], the half-maximal inhibitory concentration (IC50) in experiment [1] was less than 100 nM; with COLO205 (colon), 250 to 1000 nM.

Turning to `COc1ccc(-c2nc3ccccn3c2-c2ccnc(Nc3cccc(CN4CCN(C)CC4)c3C)n2)cc1C(=O)Nc1c(F)cccc1F` [Example 25, N-(2,6-difluorophenyl)-5-{3-[2-({2-methyl-3-[(4-methyl-1-piperazinyl)methyl]phenyl}amino)-4-pyrimidinyl}imidazo[1,2-a]pyridin-2-yl]-2-(methyloxy)benzamide], the 50% inhibitory concentration (IC50) lay in the range of 100 to 500 nM in experiment [1] and 250 to 1000 nM with COLO205 (colon).

Molecule `Cc1ccn2c(-c3ccnc(Nc4cccc(OCCN(C)C)c4)n3)c(-c3cccc(C(=O)Nc4c(F)cccc4F)c3)nc2c1` [Example 14, N-(2,6-difluorophenyl)-3-(3-{2-[(3-{[2-(dimethylamino)ethyl]oxy}phenyl)amino]-4-pyrimidinyl}-7-methylimidazo[1,2-a]pyridin-2-yl)benzamide] had an IC50 in experiment [1] greater than 500 nM. For the molecule `CN(C)CCOc1cccc(Nc2nccc(-c3c(-c4cccc(C(=O)Nc5cc(C(F)(F)F)ccc5F)c4)nc4ccccn34)n2)c1` [Example 10, 3-(3-{2-[(3-{[2-(dimethylamino)ethyl]oxy}phenyl)amino]-4-pyrimidinyl}imidazo[1,2-a]pyridin-2-yl)-N-[2-fluoro-5-(trifluoromethyl)phenyl]benzamide], the IC50 in experiment [1] lay within 100 to 500 nM. Regarding `COc1cc(N2CCOCC2)ccc1Nc1nccc(-c2c(-c3cccc(C(=O)Nc4c(F)cccc4F)c3)nc3ccccn23)n1` [Example 71, N-(2,6-difluorophenyl)-3-[3-(2-{[2-(methyloxy)-4-(4-morpholinyl)phenyl]amino}-4-pyrimidinyl)imidazo[1,2-a]pyridin-2-yl]benzamide], the figures for the IC50 (in experiment [1]; in the experiment on COLO205 (colon)) were less than 100 nM and 250 to 1000 nM, respectively. Taken in the same sequence, the figures for `COc1cc(N2CCC(N(C)C)CC2)ccc1Nc1nccc(-c2c(-c3cccc(C(=O)Nc4c(F)cccc4F)c3)nc3ccccn23)n1` [Example 74, N-(2,6-difluorophenyl)-3-[3-(2-{[4-[4-(dimethylamino)-1-piperidinyl]-2-(methyloxy)phenyl]amino}-4-pyrimidinyl)imidazo[1,2-a]pyridin-2-yl]benzamide] were less than 100 nM and less than 250 nM. Consider `COc1cc(CCN2CCOCC2)c(F)cc1Nc1nccc(-c2c(-c3ccc(OC)c(C(=O)Nc4c(F)cccc4F)c3)nc3ccccn23)n1` [Example 130, N-(2,6-difluorophenyl)-5-{3-[2-({5-fluoro-2-(methyloxy)-4-[2-(4-morpholinyl)ethyl]phenyl}-amino)-4-pyrimidinyl]imidazo[1,2-a]pyridin-2-yl}-2-(methyloxy)benzamide], for which the IC50 in experiment [1] was 100 to 500 nM; with COLO205 (colon) it was 250 to 1000 nM.

With `COc1ccc(N2CCC(N3CCCCC3)CC2)cc1Nc1nccc(-c2c(-c3ccc(OC)c(C(=O)Nc4c(F)cccc4F)c3)nc3ccccn23)n1` [Example 31, 5-[3-(2-{[5-(1,4′-bipiperidin-1-yl)-2-(methyloxy)phenyl]amino}-4-pyrimidinyl)imidazo[1,2-a]pyridin-2-yl]-N-(2,6-difluorophenyl)-2-(methyloxy)benzamide], the IC50 in experiment [1] is less than 100 nM; with COLO205 (colon), 250 to 1000 nM. Take `COc1cc(N2CCC(OC)CC2)ccc1Nc1nccc(-c2c(-c3ccc(OC)c(C(=O)Nc4c(F)cccc4F)c3)nc3ccccn23)n1` [Example 126, N-(2,6-difluorophenyl)-2-(methyloxy)-5-{3-[2-({2-(methyloxy)-4-[4-(methyloxy)-1-piperidinyl}phenyl}amino)-4-pyrimidinyl]imidazo[1,2-a]pyridin-2-yl]benzamide]: the IC50 in experiment [1] is less than 100 nM; in the experiment with COLO205 (colon) it was 250 to 1000 nM. For `COc1cc(CCN2CCCCC2)c(F)cc1Nc1nccc(-c2c(-c3ccc(OC)c(C(=O)Nc4c(F)cccc4F)c3)nc3ccccn23)n1` [Example 127, N-(2,6-difluorophenyl)-5-{3-[2-({5-fluoro-2-(methyloxy)-4-[2-(1-piperidinyl)ethyl]phenyl}-amino)-4-pyrimidinyl}imidazo[1,2-a]pyridin-2-yl}-2-(methyloxy)benzamide] the same measures were less than 100 nM and 250 to 1000 nM.

In the case of `COc1cc(CCN2CCN(C)CC2)ccc1Nc1nccc(-c2c(-c3ccc(OC)c(C(=O)Nc4c(F)cccc4F)c3)nc3ccccn23)n1` [Example 131, N-(2,6-difluorophenyl)-2-(methyloxy)-5-{3-[2-({2-(methyloxy)-4-[2-(4-methyl-1-piperazinyl)ethyl]phenyl}amino)-4-pyrimidinyl]imidazo[1,2-a]pyridin-2-yl}benzamide], the figures for the concentration for half-maximal inhibition (IC50) (in experiment [1]; in the experiment with COLO205 (colon)) were less than 100 nM and less than 250 nM, respectively.

Regarding `CN(C)CCOc1cccc(Nc2nccc(-c3c(-c4cccc(C(=O)Nc5ccc(F)cc5F)c4)nc4ccccn34)n2)c1` [Example 13], the half-maximal inhibitory concentration (IC50) in experiment [1] was less than 100 nM. In the experiment on COLO205 (colon), `COc1cc(N2CCC(N3CCN(S(C)(=O)=O)CC3)CC2)ccc1Nc1nccc(-c2c(-c3ccc(OC)c(C(=O)Nc4c(F)cccc4F)c3)nc3ccccn23)n1` [Example 69] displayed an IC50 of 250 to 1000 nM. With `COc1cc(N2CCC(N3CCCC(F)(F)C3)CC2)ccc1Nc1nccc(-c2c(-c3cccc(C(=O)Nc4c(F)cccc4F)c3)nc3ccccn23)n1` [Example 75, 3-[3-(2-{[4-(3,3-difluoro-1,4′-bipiperidin-1′-yl)-2-(methyloxy)phenyl]amino]-4-pyrimidinyl)imidazo[1,2-a]pyridin-2-yl]-N-(2,6-difluorophenyl)benzamide], the IC50 in experiment [1] was less than 100 nM; in the experiment with COLO205 (colon) it was 250 to 1000 nM. In turn, `COc1cc(-c2nnc(CN3CCCC3)o2)ccc1Nc1nccc(-c2c(-c3ccc(OC)c(C(=O)Nc4c(F)cccc4F)c3)nc3ccccn23)n1` [Example 28, N-(2,6-difluorophenyl)-2-(methyloxy)-5-{3-[2-({2-(methyloxy)-4-[5-(1-pyrrolidinylmethyl)-1,3,4-oxadiazol-2-yl]phenyl]amino)-4-pyrimidinyl}imidazo[1,2-a]pyridin-2-yl}benzamide] had a concentration for half-maximal inhibition (IC50) in experiment [1] of 100 to 500 nM. For `COc1cc(N2CCN(C(C)C)CC2)ccc1Nc1nccc(-c2c(-c3cccc(C(=O)Nc4c(F)cccc4F)c3)nc3ccccn23)n1` [Example 175, N-(2,6-difluorophenyl)-3-[3-(2-{[4-[4-(1-methylethyl)-1-piperazinyl]-2-(methyloxy)phenyl]amino}-4-pyrimidinyl)imidazo[1,2-a]pyridin-2-yl]benzamide], the IC50 in experiment [1] was less than 100 nM; with COLO205 (colon), 250 to 1000 nM.

`COc1cc(-c2nnc(CN3CCCC3)o2)ccc1Nc1nccc(-c2c(-c3cccc(C(=O)Nc4c(F)cccc4F)c3)nc3ccccn23)n1` [Example 29, N-(2,6-difluorophenyl)-3-{3-[2-({2-(methyloxy)-4-[5-(1-pyrrolidinylmethyl)-1,3,4-oxadiazol-2-yl]phenyl}amino)-4-pyrimidinyl]imidazo[1,2-a]pyridin-2-yl}benzamide]: the IC50 in experiment [1] lay within 100 to 500 nM.

The term IC50 denotes the concentration needed to halve the response being measured. Read a high IC50 as lower potency.
